According to patent US9364459B2, “3-(indolyl)- or 3-(azaindolyl)- 4-arylmaleimide derivatives for use in the treatment of colon and gastric adenocarcinoma” (Johannes Gutenberg-Universität Mainz, priority 2009, dated 2016):

Legend:
[1] = target: VEGFR-2 (Homo sapiens (Human), UniProt P35968); assay: VEGFR-2 kinase inhibition assay (Millipore IC50Profiler); type: biochemical; settings: for VEGFR-2 IC50 values, in words: Table 2
Description: (§1) GSK-3β, VEGFR-2, FLT-3 Kinase Inhibition Assays
(§2) Detailed protocols can be found at: www.millipore.com/drugdiscovery/dd3/assayprotocols.

[2] = target: FLT-3 (Homo sapiens (Human), UniProt P36888); assay: FLT-3 kinase inhibition assay (Millipore IC50Profiler); type: biochemical; settings: for FLT-3 inhibition, in words: Table 2
Sequence of FLT-3 (P36888 27-993): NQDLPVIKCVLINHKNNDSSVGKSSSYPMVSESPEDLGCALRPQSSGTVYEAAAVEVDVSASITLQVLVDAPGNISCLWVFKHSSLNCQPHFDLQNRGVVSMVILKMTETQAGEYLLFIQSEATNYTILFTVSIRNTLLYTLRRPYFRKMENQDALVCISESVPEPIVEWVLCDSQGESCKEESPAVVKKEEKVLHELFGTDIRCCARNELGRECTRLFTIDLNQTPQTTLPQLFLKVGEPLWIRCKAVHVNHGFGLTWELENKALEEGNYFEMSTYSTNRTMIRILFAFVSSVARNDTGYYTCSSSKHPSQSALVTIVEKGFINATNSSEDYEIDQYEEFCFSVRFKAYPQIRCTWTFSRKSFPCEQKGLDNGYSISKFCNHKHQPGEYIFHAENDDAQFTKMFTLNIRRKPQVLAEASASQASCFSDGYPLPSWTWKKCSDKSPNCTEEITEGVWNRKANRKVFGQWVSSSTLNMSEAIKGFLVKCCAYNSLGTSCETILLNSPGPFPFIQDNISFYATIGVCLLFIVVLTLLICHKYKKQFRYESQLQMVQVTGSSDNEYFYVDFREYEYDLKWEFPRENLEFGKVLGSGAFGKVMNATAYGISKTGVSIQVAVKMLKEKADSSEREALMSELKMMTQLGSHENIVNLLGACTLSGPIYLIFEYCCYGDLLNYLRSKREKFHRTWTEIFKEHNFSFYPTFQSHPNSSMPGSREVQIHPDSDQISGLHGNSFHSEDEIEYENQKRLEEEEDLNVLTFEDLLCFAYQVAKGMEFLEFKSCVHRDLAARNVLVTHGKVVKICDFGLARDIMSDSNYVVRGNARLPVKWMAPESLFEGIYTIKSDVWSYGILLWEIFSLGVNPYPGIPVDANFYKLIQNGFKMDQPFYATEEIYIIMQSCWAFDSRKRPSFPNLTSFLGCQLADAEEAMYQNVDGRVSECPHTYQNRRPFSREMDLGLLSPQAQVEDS
Experimental: as §1
The effect of test compounds on the activity of the protein kinases GSK-3β, VEGFR-2 and FLT-3 was evaluated based on half maximal inhibitory concentration (IC50) values determined by Millipore UK Ltd; Gemini Crescent; Dundee Technology Park; Dundee DD2 1SW; UK (IC50Profiler). Detailed protocols can be found at: www.millipore.com/drugdiscovery/dd3/assayprotocols.

[3] = target: GSK-3β (Homo sapiens (Human), UniProt P49841); assay: GSK-3β kinase inhibition assay (Millipore IC50Profiler); type: biochemical; settings: for GSK-3β IC50 values, in words: Table 2
Sequence of GSK-3β (P49841 whole entry): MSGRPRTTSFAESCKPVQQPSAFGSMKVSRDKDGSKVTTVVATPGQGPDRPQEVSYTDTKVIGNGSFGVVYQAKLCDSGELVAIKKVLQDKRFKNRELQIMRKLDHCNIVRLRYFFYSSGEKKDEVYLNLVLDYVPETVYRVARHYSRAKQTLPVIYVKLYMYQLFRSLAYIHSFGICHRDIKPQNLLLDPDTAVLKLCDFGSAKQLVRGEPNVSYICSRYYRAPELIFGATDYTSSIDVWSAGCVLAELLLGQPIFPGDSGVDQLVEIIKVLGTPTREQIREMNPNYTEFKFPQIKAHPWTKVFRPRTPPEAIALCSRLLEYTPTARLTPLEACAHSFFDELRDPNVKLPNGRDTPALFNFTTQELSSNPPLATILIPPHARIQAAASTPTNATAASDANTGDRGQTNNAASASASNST
Description: as §1, §2

[4] = tested on: chick embryo microvessel formation; assay: Quantitative chick embryo in vivo assay of antiangiogenic activity; settings: Gallus gallus; 26 nM drug concentration/pellet; 24 hours incubation; read-out: Inhibition of microvessel area
Experimental: Evaluation of Antiangiogenic Activity in a Quantitative Chick Embryo In Vivo Assay
The inhibition of angiogenesis (new blood vessel formation) was measured as described in WO2006/061212.

[5] = tested on: HUVEC; assay: Nicoletti apoptosis assay (sub-G1 fraction) in HUVEC; type: cell-based, human; settings: 4 days, untreated 15.4 ± 1.5%
Experimental: (§3) Nicoletti Apoptosis Assay by Cell Cycle Analysis
(§4) Cancer cells were transferred to 12-well flat-bottomed plates. […] Subsequently, cells were incubated in 1 ml medium containing various concentrations of test compounds at 37° C. with 5% CO2. After incubation the cells were washed with PBS, trypsinized, pelleted and mixed with PI buffer (containing 0.1% sodium citrate, 0.1% triton X-100, […] propidium iodide (PI)) and incubated for 1 hour at 4° C. Cell cycle sub-G1 fraction analysis was performed as described previously (Nicoletti, I. et al. (1991) J. Immunol. Methods 139, 271-279) using a flow cytometer (BD FACS Calibur™, BD Biosciences, Heidelberg, Germany). Each experiment was done in triplicate.
The same analysis was performed with HUVEC cells. 1.5×10^4 cells were plated into each well and treated with test compounds for 4 days.
Human Umbilical Vein Endothelial Cells (HUVEC) known for mitogenic specifity for VEGF were obtained from the Department of Pathology, University Hospital of Mainz, Germany. The cells were cultured in M199 supplemented with 20% FCS, 1% Pen/Strep, 0.34% GlutaMAX-I, 25 μg/ml Endothelial Cell Growth Supplement (BD Biosciences), 25 μg/ml Heparin sodium (179 USP units/mg; Sigma, Germany) and were maintained at 37° C. and 5% CO2.

[6] = tested on: HT-29; assay: Nicoletti apoptosis assay in HT-29 cells; type: cell-based, human; settings: for Sub-G1 Fraction: HT-29; for Activity in combination with irinotecan relative to compound A, in words: HT-29 cells
Experimental: as §3, §4

[7] = tested on: HT-29 human colon adenocarcinoma cells; assay: MTT viability assay in HT-29 cells; settings: HT-29, 72 h, read-out: Viability of HT-29 cells as determined by MTT assay
Experimental: Evaluation of Effect on Viability (MTT Assay)
The antiproliferative activity of test compounds was determined by the 3-(4,5-dimethylthiazol-2-yl)-2,5-diphenyltetrazolium bromide (MTT) assay as described previously (Mosmann, T. et al. (1983) J. Immunol. Methods 65, 55-63). Cells in the exponential growth phase were transferred to 96-well flat-bottom plates. 10,000 viable cells contained in 200 μl cell suspension were plated into each well and incubated over night. Cells were then exposed to various concentrations of test compounds (100 μl/well) for 3 days at 37° C. with 5% CO2. Subsequently, 10 μl/well MTT stock solution (5 mg/ml; Biomol, Germany) was added and the cells were incubated at 37° C. with 5% CO2 for 4 hours. 100 μl solubilization solution (10% SDS in 0.01 M HCl) was added and the cells were incubated at 37° C. with 5% CO2 over night. Plates were read on an ELISA-Reader ELX 800 (BIO-TEK Software KC 4) at 562 nm absorbance. Each experiment was done in triplicate.
HCT-116, HT-29 and SW480 cells were cultured in RPMI1640 supplemented with 10% FCS. […] All cells were maintained at 37° C. and 5% CO2.

[8] = Table 8, 7.9 μM test compound alone, drug-free control 3.4 ± 0.9%
[9] = Table 8, 7.9 μM test compound plus 1.18 μM irinotecan

Sequence of VEGFR-2 (P35968 20-1356): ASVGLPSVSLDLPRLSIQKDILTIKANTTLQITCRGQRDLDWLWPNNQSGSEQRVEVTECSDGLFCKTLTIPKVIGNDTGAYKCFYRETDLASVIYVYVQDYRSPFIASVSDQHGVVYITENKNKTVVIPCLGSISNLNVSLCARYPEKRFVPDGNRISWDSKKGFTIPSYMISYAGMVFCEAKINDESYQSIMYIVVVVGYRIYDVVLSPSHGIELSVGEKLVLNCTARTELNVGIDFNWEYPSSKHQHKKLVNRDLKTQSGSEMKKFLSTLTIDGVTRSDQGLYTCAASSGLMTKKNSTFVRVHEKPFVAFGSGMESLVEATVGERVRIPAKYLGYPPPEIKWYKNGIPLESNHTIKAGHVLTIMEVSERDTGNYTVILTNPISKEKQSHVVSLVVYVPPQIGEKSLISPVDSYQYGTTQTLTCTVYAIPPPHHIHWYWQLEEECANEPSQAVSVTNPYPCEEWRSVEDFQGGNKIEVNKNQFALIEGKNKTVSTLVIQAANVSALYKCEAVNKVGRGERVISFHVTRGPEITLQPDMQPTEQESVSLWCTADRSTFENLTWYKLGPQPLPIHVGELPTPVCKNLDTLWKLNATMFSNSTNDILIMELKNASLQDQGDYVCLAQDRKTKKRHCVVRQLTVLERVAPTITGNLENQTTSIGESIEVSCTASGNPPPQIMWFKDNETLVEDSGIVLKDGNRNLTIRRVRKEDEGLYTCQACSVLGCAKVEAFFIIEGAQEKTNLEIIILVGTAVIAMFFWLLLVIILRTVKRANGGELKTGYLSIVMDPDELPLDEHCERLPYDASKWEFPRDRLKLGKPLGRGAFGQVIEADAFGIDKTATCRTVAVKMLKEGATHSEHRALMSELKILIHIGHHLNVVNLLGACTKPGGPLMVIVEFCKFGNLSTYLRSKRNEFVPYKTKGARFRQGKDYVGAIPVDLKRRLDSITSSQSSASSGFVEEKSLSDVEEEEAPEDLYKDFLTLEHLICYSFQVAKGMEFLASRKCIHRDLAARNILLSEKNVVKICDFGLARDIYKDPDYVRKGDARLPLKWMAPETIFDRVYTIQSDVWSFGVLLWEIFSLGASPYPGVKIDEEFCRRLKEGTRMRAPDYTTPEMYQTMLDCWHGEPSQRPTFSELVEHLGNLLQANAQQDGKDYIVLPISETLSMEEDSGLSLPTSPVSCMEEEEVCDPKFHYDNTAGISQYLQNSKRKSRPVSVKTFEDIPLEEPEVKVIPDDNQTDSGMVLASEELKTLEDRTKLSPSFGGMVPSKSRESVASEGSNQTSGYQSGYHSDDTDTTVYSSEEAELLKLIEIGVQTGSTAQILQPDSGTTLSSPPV

| SMILES | IC50 [1] | IC50 [2] | IC50 [3] | GSK-3β IC50 values, in words [3] | melting point | Sub-G1 Fraction [6, 8] | Sub-G1 Fraction [6, 9] | viability at 2.6 µM [7] | viability at 7.9 µM [7] | viability at 26 µM [7] | viability at 52 µM [7] | also measured |
| --- | --- | --- | --- | --- | --- | --- | --- | --- | --- | --- | --- | --- |
| COc1cc(C2=C(c3c[nH]c4ncccc34)C(=O)NC2=O)cc(OC)c1OC [B, 3-(7-Azaindol-3-yl)-4-(3,4,5-trimethoxyphenyl)-maleinimid] | 0.037 µM | 0.132 µM | > 10 µM |  |  | 2.32 ± 1.16% | 22.36 ± 2.80% | 65 ± 2.16% | 45.5 ± 3.71% | 38.5 ± 0.99% | 38.1 ± 5.43% | VEGFR-2 IC50 values, in words [1]: low nanomolar range; FLT-3 inhibition, in words [2]: most significantly inhibited; inhibition at 0.026 µM [4]: 61%; Sub-G1 Fraction ([5]; 0.79 μM): 26.7 ± 1.9%; Sub-G1 Fraction ([5]; 2.6 μM): 49.2 ± 2.2%; Sub-G1 Fraction ([5]; 7.9 μM): 69.5 ± 3.4% |
| COc1cc(C2=C(c3cn(CCN)c4ccccc34)C(=O)NC2=O)cc(OC)c1OC.Cl [F, 3-(1-[2-Ammonioethyl]-1H-indol-3-yl)-4-(3,4,5-trimethoxyphenyl)-maleinimide-chloride] | 1.89 µM | 0.227 µM | 0.195 µM | low nanomolar range |  | 5.69 ± 0.69% | 51.00 ± 0.56% |  |  |  |  | FLT-3 inhibition, in words [2]: most significantly inhibited |
| COc1cc(C2=C(c3cn(CCO)c4ccccc34)C(=O)NC2=O)cc(OC)c1OC [H, 3-(1-[2-Hydroxyethyl]-1H-indol-3-yl)-4-(3,4,5-trimethoxyphenyl)-maleinimide] |  | 0.554 µM |  | low nanomolar range | 195 to 196 °C | 8.08 ± 0.77% | 71.28 ± 3.51% |  |  |  |  | Activity in combination with irinotecan relative to compound A, in words [6]: even more potent than compound A |
| COc1cc(C2=C(c3cn(CCN(C)C)c4ccccc34)C(=O)NC2=O)cc(OC)c1OC [J, 3-{1-[2-(Dimethylamino)ethyl]-1H-indol-3-yl}-4-(3,4,5-trimethoxyphenyl)-maleinimide] | 1.3 µM | > 1 µM | 3.58 µM |  | 184 to 185 °C | 2.50 ± 1.73% | 43.48 ± 1.87% |  |  |  |  |  |
| COc1cc(C2=C(c3cn(CCN4CCCCC4)c4ccccc34)C(=O)NC2=O)cc(OC)c1OC [L, 3-{1-[2-(piperidin-1-yl)ethyl]-1H-indol-3-yl}-4-(3,4,5-trimethoxyphenyl)-maleinimide] | 1.21 µM | 1.24 µM | > 1 µM |  | 179 to 180 °C | 4.64 ± 0.75% | 62.32 ± 1.63% |  |  |  |  | Activity in combination with irinotecan relative to compound A, in words [6]: even more potent than compound A |
| COc1cc(C2=C(c3cn(CCN4CCOCC4)c4ccccc34)C(=O)NC2=O)cc(OC)c1OC [M, 3-{1-(2-morpholinoethyl)-1H-indol-3-yl}-4-(3,4,5-trimethoxyphenyl)-maleinimide] | 9.2 µM | > 10 µM | 0.657 µM |  | 238 to 239 °C | 10.01 ± 2.16% | 56.81 ± 3.96% |  |  |  |  |  |
| CCN(CC)CCNC(=O)c1c(C)[nH]c(/C=C2\C(=O)Nc3ccc(F)cc32)c1C [sunitinib, reference compound] |  |  |  |  |  |  |  |  |  |  |  | Sub-G1 Fraction ([6]; Table 9, 5 μM sunitinib plus 1.18 μM Irinotecan, 7 days): 24.5 ± 1.2%; Sub-G1 Fraction ([6]; Table 9, single-agent treatment, 5 μM sunitinib, 7 days): 11.8 ± 1.0% |
| COc1cc2c(Nc3ccc(Br)cc3F)ncnc2cc1OCC1CCN(C)CC1 [vandetanib, reference compound] |  |  |  |  |  |  |  |  |  |  |  | Sub-G1 Fraction ([6]; Table 9, 10 μM vandetanib plus 1.18 μM Irinotecan, 7 days): 35.2 ± 0.4%; Sub-G1 Fraction ([6]; Table 9, single-agent treatment, 10 μM vandetanib, 7 days): 11.1 ± 1.9% |

The next lines start with results.

| IC50 [1] | IC50 [2] | IC50 [3] | GSK-3β IC50 values, in words [3] | melting point | SMILES | Sub-G1 Fraction [6, 8] | Sub-G1 Fraction [6, 9] | viability at 2.6 µM [7] | viability at 7.9 µM [7] | viability at 26 µM [7] | viability at 52 µM [7] | also measured |
| --- | --- | --- | --- | --- | --- | --- | --- | --- | --- | --- | --- | --- |
| 0.048 µM | 1.9 µM | < 0.01 µM | low nanomolar range |  | COc1cc(C2=C(c3c[nH]c4cnccc34)C(=O)NC2=O)cc(OC)c1OC [Compound C, 3-(6-Azaindol-3-yl)-4-(3,4,5-trimethoxyphenyl)-maleinimid] | 79.9 ± 4.13% | 75.69 ± 1.77% | 30.4 ± 1.52% | 25.8 ± 3.52% | 12.7 ± 2.6% | 4.22 ± 0.44% | VEGFR-2 IC50 values, in words [1]: low nanomolar range; inhibition at 0.026 µM [4]: 32%; Sub-G1 Fraction ([5]; 0.79 μM): 48.0 ± 2.3%; Sub-G1 Fraction ([5]; 2.6 μM): 66.3 ± 1.0% |
| 0.023 µM | 6.27 µM | 0.05 µM | low nanomolar range |  | COc1cc(C2=C(c3c[nH]c4ccncc34)C(=O)NC2=O)cc(OC)c1OC [Compound D, 3-(5-Azaindol-3-yl)-4-(3,4,5-trimethoxyphenyl)-maleinimid] | 21.51 ± 2.89% | 47.53 ± 0.47% | 62.21 ± 0.33% | 64.2 ± 0.76% | 39.6 ± 1.9% | 19.2 ± 0.26% | VEGFR-2 IC50 values, in words [1]: low nanomolar range; inhibition at 0.026 µM [4]: 69%; Sub-G1 Fraction ([5]; 0.79 μM): 25.7 ± 1.2%; Sub-G1 Fraction ([5]; 2.6 μM): 70.2 ± 2.7%; Sub-G1 Fraction ([5]; 7.9 μM): 79.9 ± 3.8% |
| 0.373 µM | 1.52 µM | 0.215 µM |  | 274 to 275 °C | COc1cc(C2=C(c3c[nH]c4cccnc34)C(=O)NC2=O)cc(OC)c1OC [E, 3-(4-Azaindol-3-yl)-4-(3,4,5-trimethoxyphenyl)-1H-pyrrol-2,5-dione] | 4.22 ± 0.74% | 25.71 ± 1.97% | 114 ± 5.2% | 98.31 ± 0.9% | 92.6 ± 2.8% | 65.8 ± 1.5% |  |
| 1.5 µM | > 1 µM | 0.129 µM | low nanomolar range |  | COc1cc(C2=C(c3cn(CCCN)c4ccccc34)C(=O)NC2=O)cc(OC)c1OC.Cl [G, 3-(1-[3-Ammoniopropyl]-1H-indol-3-yl)-4-(3,4,5-trimethoxyphenyl)-maleinimide-chloride] | 4.01 ± 0.66% | 56.01 ± 0.29% |  |  |  |  |  |
|  | 0.556 µM |  | low nanomolar range | 160 °C | COc1cc(C2=C(c3cn(CCCO)c4ccccc34)C(=O)NC2=O)cc(OC)c1OC [I, 3-(1-[3-Hydroxypropyl]-1H-indol-3-yl)-4-(3,4,5-trimethoxyphenyl)-maleinimide] | 11.25 ± 0.11% | 65.71 ± 0.04% |  |  |  |  |  |
| > 10 µM | 1.53 µM | > 1 µM |  |  | COc1cc(C2=C(c3cn(CCCN(C)C)c4ccccc34)C(=O)NC2=O)cc(OC)c1OC [K, 3-{1-[3-(Dimethylamino)propyl]-1H-indol-3-yl}-4-(3,4,5-trimethoxyphenyl) maleinimide] | 3.17 ± 0.86% | 50.28 ± 1.31% |  |  |  |  |  |
| 2.83 µM | > 10 µM | 3.24 µM |  |  | COc1cc(C2=C(c3cn(CCCN4CCN(C)CC4)c4ccccc34)C(=O)NC2=O)cc(OC)c1OC [N, 3-{1-[3-(4-Methylhexahydro-1-pyrazindiiumyl)propyl]-1H-indol-3-yl}-4-(3,4,5-trimethoxyphenyl)-maleinimide dichloride] | 3.01 ± 0.40% | 49.49 ± 1.82% |  |  |  |  |  |
|  |  |  |  | 259 to 262 °C | COc1cc(C2=C(c3c[nH]c4ccc(Br)cc34)C(=O)NC2=O)cc(OC)c1OC [P, 3-(5-Bromo-1H-indol-3-yl)-4-(3,4,5-trimethoxyphenyl)-maleinimide] | 1.81 ± 0.36% | 55.00 ± 0.33% | 37.83 ± 0.19% | 20.6 ± 0.35% | 7.07 ± 1.37% | 8.68 ± 0.37% | inhibition at 0.026 µM [4]: 35%; Sub-G1 Fraction ([5]; 0.79 μM): 24.0 ± 1.9%; Sub-G1 Fraction ([5]; 2.6 μM): 31.6 ± 2.0%; Sub-G1 Fraction ([5]; 7.9 μM): 54.4 ± 3.2%; Activity in combination with irinotecan relative to compound A, in words [6]: at least comparable with compound A |
